In ChEMBL document CHEMBL5257026, “Progress and prospects on DENV protease inhibitors” (Eur J Med Chem, 2016):

Legend:
[1] = Inhibition of DENV2 NS2B-G4-S-G4-NS3 protease using Bz-nKRR-AMC as substrate preincubated for 30 mins followed by substrate addition by fluorescence microplate reader assay; design: species or system dengue virus type 2
[2] = Inhibition of DENV2 recombinant NS2B-NS3 protease expressed in Escherichia coli JM109 using acetyl-TTSTRR-para-nitroaniline as substrate preincubated for 10 mins followed by substrate addition measured after 120 mins by spectrophotometric analysis; design: species or system dengue virus type 2
[3] = Inhibition of DENV2 NS2B-NS3 protease using Boc-Gly-Lys-Arg-AMC as substrate incubated for 30 mins by fluorescence assay; design: species or system dengue virus type 2
[4] = Inhibition of DENV1 N-terminally hexa-His tagged NS2B (48 to 95 residues) -NS3 (1 to 184 residues) protease expressed in Escherichia coli XL1 Blue using QXL570-Phe-Ala-Ser-Gly-Lys-Arg-Ser-Gln-Ile-Gly-Leu-Lys(5-TAMRA)-NH2 as substrate and measured for 15 mins by FRET assay; design: species or system dengue virus type 1
[5] = Inhibition of DENV4 N-terminally hexa-His tagged NS2B (48 to 95 residues) -NS3 (1 to 184 residues) protease expressed in Escherichia coli XL1 Blue using QXL570-Phe-Ala-Ser-Gly-Lys-Arg-Ser-Gln-Ile-Gly-Leu-Lys(5-TAMRA)-NH2 as substrate and measured for 15 mins by FRET assay; design: species or system dengue virus type 4
[6] = Inhibition of DENV2 recombinant NS2B-NS3 protease expressed in Escherichia coli JM109 assessed as inhibition constant using acetyl-TTSTRR-para-nitroaniline as substrate preincubated for 10 mins followed by substrate addition measured after 120 mins by spectrophotometric analysis; design: species or system dengue virus type 2
[7] = Inhibition of DENV2 N-terminally hexa-His tagged NS2B (48 to 95 residues) -NS3 (1 to 184 residues) protease expressed in Escherichia coli XL1 Blue using QXL570-Phe-Ala-Ser-Gly-Lys-Arg-Ser-Gln-Ile-Gly-Leu-Lys(5-TAMRA)-NH2 as substrate and measured for 15 mins by FRET assay; design: species or system dengue virus type 2
[8] = Inhibition of DENV3 N-terminally hexa-His tagged NS2B (48 to 95 residues) -NS3 (1 to 184 residues) protease expressed in Escherichia coli XL1 Blue using QXL570-Phe-Ala-Ser-Gly-Lys-Arg-Ser-Gln-Ile-Gly-Leu-Lys(5-TAMRA)-NH2 as substrate and measured for 15 mins by FRET assay; design: species or system dengue virus type 3
[9] = Inhibition of DENV2 hydrophilic domain of NS2B (48 aminoacids)-NS3 (185 aminoacids) protease using Bz-Nle-Lys-Arg-Arg-AMC as substrate preincubated for 15 mins followed by substrate addition by spectrofluorometeric assay; design: species or system dengue virus type 2
[10] = Inhibition of DENV2 recombinant CF40gly(T)R fused NS2B-NS3 protease expressed in Escherichia coli XL1-Blue MRF using Boc-Gly-Arg-Arg-MCA as substrate incubated for 30 mins by fluorescence spectrophotometeric assay; design: species or system dengue virus type 2
[11] = Inhibition of DENV2 NS2B-NS3 protease expressed in Escherichia coli BL21 (DE3) using Bz-Nle-Lys-Arg-Arg-AMC as substrate preincubated for 30 mins followed by substrate addition by fluorescence plate reader analysis; design: species or system dengue virus type 2

SMILES | IC50 [4] [µM] | IC50 [5] [µM] | IC50 [7] [µM] | IC50 [8] [µM] | other results
N#Cc1ccc(OC(=O)c2ccc(NC(=N)N)cc2)cc1 | – | – | – | – | IC50 [1]: 37.9 µM
CCN1/C(=C/C=C/c2oc3ccc4ccccc4c3[n+]2CC)Oc2ccc3ccccc3c21 | – | – | – | – | IC50 [2]: 27 µM
Cc1cc(=O)cc2oc3cc(N)c(-c4c(C)cc(O)cc4O)c(C)c3nc1-2 | – | – | – | – | Ki [3]: 35 µM
N=C(N)Nc1ccc(OC(=O)c2ccc(NC(=N)N)cc2)cc1 | – | – | – | – | IC50 [1]: 7.7 µM
O=C(Nc1nc2cc(O)c(O)cc2s1)c1ccccc1Sc1ccc(C(F)(F)F)cc1 | – | – | – | – | IC50 [2]: 3.6 µM
O=C(Nc1cccs1)c1ccccc1Sc1ccc([N+](=O)[O-])cc1 | – | – | – | – | IC50 [2]: 98 µM
O=C(Nc1nc2ccc([N+](=O)[O-])cc2s1)c1ccccc1Sc1ccc(C(F)(F)F)cc1 | – | – | – | – | IC50 [2]: 22 µM
O=C(Nc1nc2ccc([N+](=O)[O-])cc2s1)c1ccccc1Sc1ccc([N+](=O)[O-])cc1 | – | – | – | – | IC50 [2]: 34 µM
Oc1c(C(Cc2nccs2)c2ccccc2OCc2ccccc2)ccc2ccccc12 (stereo not given) | – | – | – | – | IC50 [9]: 2340 nM
Oc1c(C(Cc2nccs2)c2cccc(OCc3ccccc3)c2)ccc2ccccc12 (stereo not given) | – | – | – | – | IC50 [9]: 2930 nM
c1ccc([C@H]2Oc3ccccc3[C@@H]3Oc4ccccc4C[C@H]23)cc1 | – | – | – | – | Ki [10]: 510 µM
Oc1c(C(Cc2nc3ccccc3s2)c2ccccc2OCc2ccccc2)ccc2ccccc12 (stereo not given) | – | – | – | – | IC50 [9]: 3670 nM
c1ccc2[nH]c(-c3ccc(Nc4nnc(Nc5ccc(-c6nc7ccccc7[nH]6)cc5)c5ccccc45)cc3)nc2c1 | – | – | – | – | IC50 [11]: 1100 nM

Further lines, with some results ahead:

IC50 [4] [µM] | IC50 [5] [µM] | IC50 [7] [µM] | IC50 [8] [µM] | SMILES | other results
3 | 11 | 5 | 5 | N=C(N)Nc1ccc(O[C@H]2C[C@@H](Oc3ccc(NC(=N)N)cc3NC(=N)N)[C@H](NC(=N)N)C[C@@H]2NC(=N)N)c(NC(=N)N)c1 | Ki [6]: 15.4 µM
2.6 | 21 | 7 | 8.2 | Cc1cc(NC(=O)O[C@@H]2C[C@H](Oc3ccc(NC(=N)N)cc3N=C(N)N)[C@@H](N=C(N)N)C[C@H]2N=C(N)N)ccc1F | –
10.3 | 69 | 17 | 18.4 | N=C(N)Nc1ccc(NC(=O)O[C@H]2C[C@@H](OC(=O)Nc3ccc(NC(=N)N)cc3)[C@H](NC(=N)N)C[C@@H]2NC(=N)N)cc1 | –
5 | 20 | 10.9 | 9 | N=C(N)Nc1ccc(O[C@H]2C[C@@H](Oc3ccc(NC(=N)N)cc3)[C@H](NC(=N)N)C[C@@H]2NC(=N)N)cc1 | –
8.8 | 55 | 32 | 17 | N=C(N)Nc1ccccc1O[C@H]1C[C@@H](Oc2ccccc2NC(=N)N)[C@H](NC(=N)N)C[C@@H]1NC(=N)N | –
5.3 | 12.4 | 10 | 4 | N=C(N)Nc1ccc(N[C@H]2C[C@@H](NC(=N)N)[C@H](Oc3ccc(NC(=N)N)cc3)C[C@@H]2Oc2ccc(NC(=N)N)cc2)cc1 | –
9.7 | 57 | 15 | 20 | N=C(N)Nc1ccc(O[C@H]2C[C@@H](O)[C@H](NC(=N)N)C[C@@H]2NC(=N)N)c(NC(=N)N)c1 | –
8.8 | 53 | 20.5 | 17.2 | N=C(N)Nc1ccc(O[C@H]2C[C@H](F)[C@H](NC(=N)N)C[C@@H]2NC(=N)N)c(NC(=N)N)c1 | –
7.9 | 34 | 6 | 8.6 | N=C(N)Nc1cc(NC(=N)N)c2ccccc2c1O[C@H]1C[C@@H](O)[C@H](NC(=N)N)C[C@@H]1NC(=N)N | –
